The values that follow come from PMC4504870 (EJNMMI Research, 2015).

For data set [1] the following is noted: cited from earlier work.
The conditions of data set [2]: cited from earlier work. This is another data set of the same source.
The conditions of data set [3]: 90 min after injection, 12 MBq i.v., anesthetized; cited from earlier work.
Data set [4] can be described thus: Radiation dose of i.v. ^68Ga-citrate estimated from ^67Ga-citrate data (literature). Details: species or system human. The following applies: converted from 0.052 rem/mCi assuming only gamma radiation.
Details of data set [5]: method as in PMID 4743583. The conditions noted are these: i.v., estimated from ^67Ga-citrate data, uniform distribution of radioactivity assumed; cited from earlier work.
Where [6] appears, read: ref Tang 2003, Pauleit 2003 [22], [23].

Where two headings read alike, the source gives them in different places. Marks after values point to notes of the source that are not given here.

As for `N[C@@H](Cc1cc(O)c(O)cc1[18F])C(=O)O` [6-^18 F-Fluoro-L-Dopa], the “Human derived ED” value in data set [1] (ref Harvey 1985, Brown 1998 [20], [21]) is recorded as 0.0199 mSv/MBq. For the same compound, the “Animal derived ED” value in data set [2] (calculated with biological risk weight factors of ICRP 30, ref Harvey 1985, Brown 1998 [20], [21]) was 0.0539^b mSv/MBq.

Turning to `[11CH3]Nc1ccc(-c2nc3ccc(O)cc3s2)cc1` [^11C-6-OH-BTA-1], in data set [1] (ref Parsey 2005, Scheinin 2007 [17], [18]), the “Human derived ED” value is 0.0045 mSv/MBq. For the same compound, the “Animal derived ED” value in data set [2] (males only, ref Parsey 2005, Scheinin 2007 [17], [18]) was 0.0065^a mSv/MBq.

Regarding `C[N+](C)([11CH3])CCO` [^11C-Choline], in data set [1] (ref Tolvanen 2010 [24]), the “Human derived ED” value is given as 0.0044 mSv/MBq. Moreover, in data set [2] (ref Tolvanen 2010 [24]), the “Animal derived ED” value was 0.0028 mSv/MBq.

For `N[C@@H](Cc1ccc(OCC[18F])cc1)C(=O)O` [^18 F-FET, O-(2-[^18F]fluoroethyl)-L-tyrosine], the “Human derived ED” value in data set [1] (setting [6]) is 0.0165 mSv/MBq. In data set [2] (setting [6]), the “Animal derived ED” value is 0.0186 mSv/MBq.

Consider `[68Ga+3].[Cl-].[Cl-].[Cl-]` [^68Ga-chloride], for which, in data set [3], the “SUV, blood” value is on record as 2.7 ± 0.3; the “SUV, liver” value is given as 5.9 ± 3.3; the “SUV, lung” value was 1.9 ± 0.8; the “SUV, muscle” value is 0.2 ± 0.03. For the same compound, in data set [3], the “SUV, skin” value was 0.5 ± 0.1.

For the compound `O=C([O-])CC(O)(CC(=O)[O-])C(=O)[O-].[68Ga+3]` [^68Ga-citrate], the “Estimated absorbed dose for total body, converted” value in data set [4] is 0.014 mSv/MBq. Moreover, the “Estimated absorbed dose for total body” value in data set [5] was 0.052 rads/mCi.

With “carbon-11-methoxyprogabidic acid [^11C-MPGA]”, in data set [1] (ref Santens 1998 [19]), the “Human derived ED” value is given as 0.0053 mSv/MBq. Moreover, in data set [2] (ref Santens 1998 [19]), the “Animal derived ED” value is on record as 0.0048 mSv/MBq.
